In patent US20080004247A1, “Combinations of Statins with Bronchodilators” (ASTRAZENECA AB, priority 2004, published 2008):

Assay: Meta-analysis of 2 one-year clinical trials: incidence of severe COPD exacerbations with and without concomitant statins
Format: in vivo, patients
Conditions: severe exacerbations = need for a treatment course of oral corticosteroids
Experimental: A meta-analysis was performed from 2 one-year clinical trials in moderate to severe COPD. Patients treated with budesonide (Pulmicort®), formoterol (Oxis®), formoterol+budesonide (Symbicort®) or Placebo were analysed with and without statins as concomitant medication. The incidence of severe exacerbations, defined as need for a treatment course of oral corticosteroids, was determined.

[1] = PLUS STATINS as concomitant medication

## CCCC1O[C@@H]2C[C@H]3[C@@H]4CCC5=CC(=O)C=C[C@]5(C)[C@H]4[C@@H](O)C[C@]3(C)[C@]2(C(=O)CO)O1 (stereo partly shown) [Budesonide, budesonide]
EXCLUDING STATINS
  Incidence of exacerbations per year: 0.9 (n = 379) per year
[1]
  Incidence of exacerbations per year: 0.7 (n = 8) per year

## COc1ccc(CC(C)NCC(O)c2ccc(O)c(NC=O)c2)cc1 (stereo not shown) [Formoterol, formoterol]
EXCLUDING STATINS
  Incidence of exacerbations per year: 1.0 (n = 388) per year
[1]
  Incidence of exacerbations per year: 0.4 (n = 9) per year
